Here are results for 2 molecules from article PMC11258623 (ESMO Open, 2024).

Data set [1] relates to patients with advanced solid tumors. Type of data set: in vivo, human.
Data set [2] can be described thus: TAK-659 plasma pharmacokinetics. Type of data set: in vivo, human. Conditions: for AUC0-t increase from day 1 to day 15 / clearance decrease from day 1 to day 15: with paclitaxel.
In data set [3] the test system is patients with acute myeloid leukemia (AML). Conditions: TAK-659 monotherapy, doses of up to 160 mg daily; cited from earlier work.
The test system of a further data set is CYP3A4. Conditions: overlapping elimination mechanisms; cited from earlier work.
A short description of data set [4]: Paclitaxel plasma pharmacokinetics. Conditions: paclitaxel 60 mg/m^2; with daily oral TAK-659. Type of data set: in vivo, human.

Regarding `Cn1cc(-c2nc(N[C@@H]3CCCC[C@@H]3N)c(F)c3c2C(=O)NC3)cn1` [TAK-659, mivavotinib], the “patients with dose of TAK-659 reduced” value in data set [1] (Six of 49 patients, given with paclitaxel) was found to be 12%. In data set [1] (oral, combined with paclitaxel), the “recommended phase II dose of TAK-659” value turned out to be 80 mg daily. In addition, the “patients who needed a second dose reduction of TAK-659” value in data set [1] (two of 49 patients, given with paclitaxel) is on record as 4%. For the same molecule, the “increase in terminal elimination half-life from day 1 to day 15” value in data set [2] (60-mg dosing cohort, not statistically significant (P = 0.1650)) was 41%. In addition, the “AUC0-t increase from day 1 to day 15” value in data set [2] (60-mg dosing group) is 40%; in data set [2] (80-mg dosing group), 66%; in data set [2] (100-mg dosing group), 91%. Also, the “clearance decrease from day 1 to day 15” value in data set [2] (60-mg dosing group) came out at 36%; in data set [2] (80-mg dosing group), 31%; in data set [2] (100-mg dosing group), 46%. The MTD result in data set [3] is “not reached”. The “substrate for CYP3A4, a major drug metabolizing enzyme” value in the data set on CYP3A4 is “substrates”.
On to `CC(=O)O[C@H]1C(=O)[C@@]2(C)[C@H]([C@H](OC(=O)c3ccccc3)[C@]3(O)C[C@H](OC(=O)[C@H](O)[C@@H](NC(=O)c4ccccc4)c4ccccc4)C(C)=C1C3(C)C)[C@]1(OC(C)=O)CO[C@@H]1C[C@@H]2O` [Paclitaxel, paclitaxel, reference compound], for which, in data set [1] (Nine of 49 patients, given with TAK-659), the “patients with paclitaxel dose reduced” value was 18%. Also, in data set [4], the “increase in exposure (AUC), cycle 1 day 15 compared with cycle 1 day 1” value is given as roughly 28% and the “reduction in clearance, cycle 1 day 15 compared with cycle 1 day 1” value is recorded as roughly 20%. In the data set on CYP3A4, the “substrate for CYP3A4, a major drug metabolizing enzyme” value is recorded as “substrates”.
